# Measurements: the NIST ThermoML archive (doi:10.1021/acs.jced.8b00192)
# ± gives the expanded uncertainty stated by the source.
# Key:
# [1] = Crystal; DTA
# [2] = Molar enthalpy of transition or fusion; conditions: Crystal; DSC
Normal melting temperature [1],Molar enthalpy of transition or fusion [2],Structure (SMILES)
76.53 ± 1.1 °C,3.86 ± 0.21 kcal/mol,CC(=O)c1cccc([N+](=O)[O-])c1 [1-(3-nitrophenyl)ethanone]
81.00 ± 1.1 °C,5.72 ± 0.225 kcal/mol,CC(=O)c1ccc([N+](=O)[O-])cc1 [1-(4-nitrophenyl)ethanone]
